Columns and labels:
[1] = molecular target: wild type PRC2 (wtPRC2) complex (Homo sapiens (Human), UniProt Q15910); experiment: EZH2 LC-MS assay (LC-Qualified); type: biochemical; conditions: (a) LC-Qualified assay
Description: Representative compounds of the invention were serially and separately diluted 3-fold in DMSO to obtain twelve concentrations. […] Solutions (6 μL) of 80 nM wild type PRC2 (wtPRC2) complex and 60 μM SAM in reaction buffer (20 mM Tris, pH 8.0, 0.1% BSA, 0.01% Triton, 0.5 mM DTT) were added to the wells that were then incubated with the test compound for 20 min. A 6 μL solution of 3 μM of the substrate peptide H3K27me1 (histone H3[21-44]-K27me1-biotin) and 6 μM regulatory peptide H3K27me3 (histone H3[21-44]-K27me3) in reaction buffer was added to initiate each reaction. […] The data were fit to a dose response equation using the program Helios to get the IC50 values of the test compound.

EZH2 = EZH2 (Homo sapiens (Human), UniProt Q15910); experiment: ELISA (H3K27 methylation) assay in G401 cell; type: cell-based; conditions: (b) ELISA Qualified assay, 48 h
Description: Representative compounds of the invention were serially and separately diluted 3-fold in DO to obtain a total of eight or twelve concentrations. Then the compounds were added to G401 cell cultured in 384-well plate at 1:500 dilution to obtain the highest concentration of 20 μM. The cells were further cultured for 48 h before ELISA procedure.
ELISA protocol: Cell lysates were transferred to the wells of a 384-well plate and the final volume was adjusted to 50 μL per well with PBS. The plate was sealed, centrifuged at 2,000 rpm for 2 min and incubated at 4° C. for about 16 h. The plate was washed with TBST buffer (1×TBS (10×TBS: 24.2 g Tris (Sigma, T6066), 80 g NaCl (Sigma, S3014) to 1 L of water and adjust pH to 7.6 with HCl) with 0.1% Tween-20). Blocking buffer (TBST, 5% BSA; 50 μL per well) was added and the plate was incubated for 1 h at rt. The blocking buffer was removed and primary antibody was added (30 μL per well). […] The primary antibody was incubated in the plate at rt for 1 h. The wells were washed with TBST and incubated with secondary antibody for 1 h at rt.
After 1 h of incubation at rt, the wells were washed with TBST. […] The signal was read using a PerkinElmer Envision Reader. The H3K27 methylation readouts were normalized using H3 signal and then percentage inhibition was calculated against the samples treated with DO. The data were fit to a dose response curve using the program Helios to get the IC50 values of the test compound.

EZH2, sequence (Q15910 whole entry): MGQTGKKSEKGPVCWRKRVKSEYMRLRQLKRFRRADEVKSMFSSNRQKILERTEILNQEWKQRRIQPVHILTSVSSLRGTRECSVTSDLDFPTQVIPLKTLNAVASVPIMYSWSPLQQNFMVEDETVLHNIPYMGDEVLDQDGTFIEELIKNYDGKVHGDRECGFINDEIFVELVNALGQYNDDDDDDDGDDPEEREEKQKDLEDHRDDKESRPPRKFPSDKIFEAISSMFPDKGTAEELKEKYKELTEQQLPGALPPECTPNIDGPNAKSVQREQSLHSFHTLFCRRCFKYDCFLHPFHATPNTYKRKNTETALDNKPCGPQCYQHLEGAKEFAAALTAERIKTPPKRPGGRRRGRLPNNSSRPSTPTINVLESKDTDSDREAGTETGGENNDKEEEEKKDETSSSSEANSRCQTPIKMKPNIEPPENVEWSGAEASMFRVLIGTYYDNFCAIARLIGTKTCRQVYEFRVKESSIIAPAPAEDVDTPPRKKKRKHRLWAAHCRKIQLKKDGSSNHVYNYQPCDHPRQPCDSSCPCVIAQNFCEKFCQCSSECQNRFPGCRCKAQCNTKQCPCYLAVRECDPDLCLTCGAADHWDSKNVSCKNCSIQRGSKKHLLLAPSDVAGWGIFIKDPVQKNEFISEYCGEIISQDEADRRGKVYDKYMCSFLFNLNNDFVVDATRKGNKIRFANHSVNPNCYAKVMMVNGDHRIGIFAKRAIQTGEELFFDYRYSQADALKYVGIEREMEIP
EZH2, sequence (Q15022 whole entry partner): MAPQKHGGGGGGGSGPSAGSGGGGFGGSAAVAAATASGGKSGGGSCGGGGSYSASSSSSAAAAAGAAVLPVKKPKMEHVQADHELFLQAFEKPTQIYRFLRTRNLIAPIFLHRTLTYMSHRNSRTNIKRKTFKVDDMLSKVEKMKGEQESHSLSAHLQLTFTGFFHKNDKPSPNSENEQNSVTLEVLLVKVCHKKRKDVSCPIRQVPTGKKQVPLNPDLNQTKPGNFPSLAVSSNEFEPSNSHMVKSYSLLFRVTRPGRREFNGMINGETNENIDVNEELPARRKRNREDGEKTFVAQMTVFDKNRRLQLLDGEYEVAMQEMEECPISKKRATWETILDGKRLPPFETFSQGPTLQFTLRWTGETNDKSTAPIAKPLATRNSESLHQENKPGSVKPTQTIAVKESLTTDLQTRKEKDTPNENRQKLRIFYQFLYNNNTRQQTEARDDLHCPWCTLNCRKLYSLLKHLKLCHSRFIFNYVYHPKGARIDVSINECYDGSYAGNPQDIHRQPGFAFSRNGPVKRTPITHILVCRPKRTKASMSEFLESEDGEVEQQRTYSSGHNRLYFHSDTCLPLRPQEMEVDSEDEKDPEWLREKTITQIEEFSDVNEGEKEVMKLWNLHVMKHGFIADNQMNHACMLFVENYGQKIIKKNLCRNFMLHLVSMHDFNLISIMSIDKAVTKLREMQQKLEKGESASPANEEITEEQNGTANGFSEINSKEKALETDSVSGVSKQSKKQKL
EZH2, sequence (O75530 whole entry partner): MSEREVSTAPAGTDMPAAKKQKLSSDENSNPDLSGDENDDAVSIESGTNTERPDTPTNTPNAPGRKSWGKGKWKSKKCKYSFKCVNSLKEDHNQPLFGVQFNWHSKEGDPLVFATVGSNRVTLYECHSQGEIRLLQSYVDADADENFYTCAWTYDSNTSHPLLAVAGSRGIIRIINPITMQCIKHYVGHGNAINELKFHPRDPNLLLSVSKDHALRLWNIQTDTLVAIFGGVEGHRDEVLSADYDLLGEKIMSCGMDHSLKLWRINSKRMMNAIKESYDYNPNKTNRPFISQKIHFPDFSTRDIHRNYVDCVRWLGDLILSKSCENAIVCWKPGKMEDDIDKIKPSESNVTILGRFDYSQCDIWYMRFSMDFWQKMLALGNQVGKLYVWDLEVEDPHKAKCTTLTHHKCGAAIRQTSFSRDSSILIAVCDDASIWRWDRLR
EZH2, sequence (Q09028 whole entry partner): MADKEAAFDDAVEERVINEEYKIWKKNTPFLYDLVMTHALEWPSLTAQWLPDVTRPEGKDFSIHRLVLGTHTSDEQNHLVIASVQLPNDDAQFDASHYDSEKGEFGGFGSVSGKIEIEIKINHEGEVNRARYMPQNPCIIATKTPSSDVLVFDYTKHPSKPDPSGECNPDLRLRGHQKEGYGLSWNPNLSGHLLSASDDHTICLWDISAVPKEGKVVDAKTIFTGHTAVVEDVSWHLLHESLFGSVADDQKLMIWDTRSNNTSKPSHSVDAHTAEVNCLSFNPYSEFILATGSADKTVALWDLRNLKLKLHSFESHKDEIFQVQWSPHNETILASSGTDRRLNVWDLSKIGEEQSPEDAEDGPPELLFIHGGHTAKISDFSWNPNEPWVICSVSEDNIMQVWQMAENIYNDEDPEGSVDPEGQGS
wild type PRC2 (wtPRC2) complex, sequence (Q15910 whole entry): as the sequence (Q15910 whole entry) above
wild type PRC2 (wtPRC2) complex, sequence (Q15022 whole entry partner): as the sequence (Q15022 whole entry partner) above
wild type PRC2 (wtPRC2) complex, sequence (O75530 whole entry partner): as the sequence (O75530 whole entry partner) above
wild type PRC2 (wtPRC2) complex, sequence (Q09028 whole entry partner): as the sequence (Q09028 whole entry partner) above
wild type PRC2 (wtPRC2) complex, sequence (Q6ZN18 whole entry partner): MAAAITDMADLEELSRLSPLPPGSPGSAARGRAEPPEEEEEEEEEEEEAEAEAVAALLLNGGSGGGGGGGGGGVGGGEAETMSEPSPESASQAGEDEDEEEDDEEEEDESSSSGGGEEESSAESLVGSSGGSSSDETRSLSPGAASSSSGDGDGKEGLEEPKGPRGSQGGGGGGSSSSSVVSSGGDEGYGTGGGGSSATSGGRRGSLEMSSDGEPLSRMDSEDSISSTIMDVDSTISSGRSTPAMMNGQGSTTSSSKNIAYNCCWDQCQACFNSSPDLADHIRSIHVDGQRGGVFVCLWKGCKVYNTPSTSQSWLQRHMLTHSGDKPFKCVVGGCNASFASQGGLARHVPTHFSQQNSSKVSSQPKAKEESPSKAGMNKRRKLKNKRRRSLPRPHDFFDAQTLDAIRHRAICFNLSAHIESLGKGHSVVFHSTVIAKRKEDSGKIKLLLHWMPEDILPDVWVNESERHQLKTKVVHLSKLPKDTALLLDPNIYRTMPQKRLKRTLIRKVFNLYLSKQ

Row | Compound | IC50 [1] [µM] | IC50 (EZH2) [µM]
1 | 2-methoxyethyl (2-((((1,4-trans)-4-((8-chloro-1,7-naphthyridin-2-yl)amino)cyclohexyl)methyl)amino)pyrimidin-5-yl)carbamate [Compound C16] | 0.015 | 0.027
2 | CC(C(=O)N(C)C1COC1)c1cnc(NC[C@H]2CC[C@H](Nc3ccc4ccnc(Cl)c4n3)CC2)nc1 (mixture of isomers) [Compound C55, 2-(2-((((1,4-trans)-4-((8-chloro-1,7-naphthyridin-2-yl)amino)cyclohexyl)methyl)amino)pyrimidin-5-yl)-N-methyl-N-(oxetan-3-yl)propanamide] | 0.054 | 0.002
3 | CC(C(=O)N1CC(O)C1)c1cnc(NC[C@H]2CC[C@H](Nc3ccc4ccnc(Cl)c4n3)CC2)nc1 (mixture of isomers) [Compound C69, 2-(2-((((1,4-trans)-4-((8-chloro-1,7-naphthyridin-2-yl)amino)cyclohexyl)methyl)amino)pyrimidin-5-yl)-1-(3-hydroxyazetidin-1-yl)propan-1-one] | 0.035 | 0.136
4 | COc1nccc2ccc(N[C@H]3CC[C@H](CNc4ncc(NC(=O)C5CNC5)cn4)CC3)nc12 [Compound C2, N-(2-((((1,4-trans)-4-((8-methoxy-1,7-naphthyridin-2-yl)amino)cyclohexyl)methyl)amino)pyrimidin-5-yl)azetidine-3-carboxamide] | 0.087 | 0.783
5 | COc1nccc2ccc(N[C@H]3CC[C@H](CNc4ncc(NC(=O)C5CN(C)C5)cn4)CC3)nc12 [Compound C3, N-(2-((((1,4-trans)-4-((8-methoxy-1,7-naphthyridin-2-yl)amino)cyclohexyl)methyl)amino)pyrimidin-5-yl)-1-methylazetidine-3-carboxamide] | 0.054 | 0.025
6 | COc1nccc2ccc(N[C@H]3CC[C@H](CNc4ncc(C#N)cn4)CC3)nc12 [Compound C4, 2-((((1,4-trans)-4-((8-methoxy-1,7-naphthyridin-2-yl)amino)cyclohexyl)methyl)amino)pyrimidine-5-carbonitrile] | 0.046 | 0.031
7 | COc1nccc2ccc(N[C@H]3CC[C@H](CNc4ncc(C(N)=O)cn4)CC3)nc12 [Compound C5, 2-((((1,4-trans)-4-((8-methoxy-1,7-naphthyridin-2-yl)amino)cyclohexyl)methyl)amino)pyrimidine-5-carboxamide] | 0.063 | 0.062
8 | COc1nccc2ccc(N[C@H]3CC[C@H](CNc4ncc(NC(=O)CO)cn4)CC3)nc12 [Compound C7, 2-hydroxy-N-(2-((((1,4-trans)-4-((8-methoxy-1,7-naphthyridin-2-yl)amino)cyclohexyl)methyl)amino)pyrimidin-5-yl)acetamide] | 0.111 | 0.131
9 | COc1nccc2ccc(N[C@H]3CC[C@H](CNc4ncc(C(=O)NCC(C)O)cn4)CC3)nc12 (stereo partly drawn) [Compound C9, N-(2-hydroxypropyl)-2-((((1,4-trans)-4-((8-methoxy-1,7-naphthyridin-2-yl)amino)cyclohexyl)methyl)amino)pyrimidine-5-carboxamide] | 0.105 | 0.061
10 | COc1nccc2ccc(N[C@H]3CC[C@H](CNc4ncc(C(=O)N5CCOCC5)cn4)CC3)nc12 [Compound C10, (2-((((1,4-trans)-4-((8-methoxy-1,7-naphthyridin-2-yl)amino)cyclohexyl)methyl)amino)pyrimidin-5-yl)(morpholino)methanone] | 0.194 | 0.191
11 | COc1nccc2ccc(N[C@H]3CC[C@H](CNc4ncc(C(=O)N5CCN(C)CC5)cn4)CC3)nc12 [Compound C11, (2-((((1,4-trans)-4-((8-methoxy-1,7-naphthyridin-2-yl)amino)cyclohexyl)methyl)amino)pyrimidin-5-yl)(4-methylpiperazin-1-yl)methanone] | 0.12 | 0.029
12 | COc1nccc2ccc(N[C@H]3CC[C@H](CNc4ncc(-c5ncn[nH]5)cn4)CC3)nc12 [Compound C12, N-((1,4-trans)-4-(((5-(1H-1,2,4-triazol-5-yl)pyrimidin-2-yl)amino)methyl)cyclohexyl)-8-methoxy-1,7-naphthyridin-2-amine] | 0.075 | 0.052
13 | COc1nccc2ccc(N[C@H]3CC[C@H](CNc4ncc(CC(=O)NC5COC5)cn4)CC3)nc12 [Compound C13, 2-(2-((((1,4-trans)-4-((8-methoxy-1,7-naphthyridin-2-yl)amino)cyclohexyl)methyl)amino)pyrimidin-5-yl)-N-(oxetan-3-yl)acetamide] | 0.042 | 0.013
14 | Nc1cnc(NC[C@H]2CC[C@H](Nc3ccc4ccnc(Cl)c4n3)CC2)nc1 [Compound C14, N^2-(((1,4-trans)-4-((8-chloro-1,7-naphthyridin-2-yl)amino)cyclohexyl)methyl)pyrimidine-2,5-diamine] | 0.116 | 0.056
15 | O=C(Nc1cnc(NC[C@H]2CC[C@H](Nc3ccc4ccnc(Cl)c4n3)CC2)nc1)OCCO [Compound C17, 2-hydroxyethyl (2-((((1,4-trans)-4-((8-chloro-1,7-naphthyridin-2-yl)amino)cyclohexyl)methyl)amino)pyrimidin-5-yl)carbamate] | 0.088 | 0.01
16 | O=C(Nc1cnc(NC[C@H]2CC[C@H](Nc3ccc4ccnc(Cl)c4n3)CC2)nc1)OCC1COC1 [Compound C18, Oxetan-3-ylmethyl (2-((((1,4-trans)-4-((8-chloro-1,7-naphthyridin-2-yl)amino)cyclohexyl)methyl)amino)pyrimidin-5-yl)carbamate] | 0.028 | 0.039
17 | O=C(CO)Nc1cnc(NC[C@H]2CC[C@H](Nc3ccc4ccnc(Cl)c4n3)CC2)nc1 [Compound C19, N-(2-((((1,4-trans)-4-((8-chloro-1,7-naphthyridin-2-yl)amino)cyclohexyl)methyl)amino)pyrimidin-5-yl)-2-hydroxyacetamide] | – | 0.069
18 | O=C(CCC(=O)N1CCOCC1)Nc1cnc(NC[C@H]2CC[C@H](Nc3ccc4ccnc(Cl)c4n3)CC2)nc1 [Compound C20, N-(2-((((1,4-trans)-4-((8-chloro-1,7-naphthyridin-2-yl)amino)cyclohexyl)methyl)amino)pyrimidin-5-yl)-4-morpholino-4-oxobutanamide] | 0.068 | 0.127
19 | N#Cc1cnc(NC[C@H]2CC[C@H](Nc3ccc4ccnc(Cl)c4n3)CC2)nc1 [Compound C21, 2-((((1,4-trans)-4-((8-chloro-1,7-naphthyridin-2-yl)amino)cyclohexyl)methyl)amino)pyrimidine-5-carbonitrile] | 0.04 | 0.04
20 | O=C(c1cnc(NC[C@H]2CC[C@H](Nc3ccc4ccnc(Cl)c4n3)CC2)nc1)N1CCOCC1 [Compound C22, (2-((((1,4-trans)-4-((8-chloro-1,7-naphthyridin-2-yl)amino)cyclohexyl)methyl)amino)pyrimidin-5-yl)(morpholino)methanone] | 0.046 | 0.188
21 | O=C(c1cnc(NC[C@H]2CC[C@H](Nc3ccc4ccnc(Cl)c4n3)CC2)nc1)N1CCNCC1 [Compound C24, (2-((((1,4-trans)-4-((8-chloro-1,7-naphthyridin-2-yl)amino)cyclohexyl)methyl)amino)pyrimidin-5-yl)(piperazin-1-yl)methanone] | 0.112 | 0.296
22 | O=C(NC1COC1)c1cnc(NC[C@H]2CC[C@H](Nc3ccc4ccnc(Cl)c4n3)CC2)nc1 [Compound C25, 2-((((1,4-trans)-4-((8-chloro-1,7-naphthyridin-2-yl)amino)cyclohexyl)methyl)amino)-N-(oxetan-3-yl)pyrimidine-5-carboxamide] | 0.023 | 0.285
23 | CS(=O)(=O)N1CCN(Cc2cnc(NC[C@H]3CC[C@H](Nc4ccc5ccnc(Cl)c5n4)CC3)nc2)CC1 [Compound C26, 8-chloro-N-((1,4-trans)-4-(((5-((4-(methylsulfonyl)piperazin-1-yl)methyl)pyrimidin-2-yl)amino)methyl)cyclohexyl)-1,7-naphthyridin-2-amine] | 0.012 | 0.006
24 | OC1CN(Cc2cnc(NC[C@H]3CC[C@H](Nc4ccc5ccnc(Cl)c5n4)CC3)nc2)C1 [Compound C29, 1-((2-((((1,4-trans)-4-((8-chloro-1,7-naphthyridin-2-yl)amino)cyclohexyl)methyl)amino)pyrimidin-5-yl)methyl)azetidin-3-ol] | 0.02 | 0.022
25 | Clc1nccc2ccc(NC3CCC(CNc4ncc(COC5COC5)cn4)CC3)nc12 (stereo not drawn) [Compound C35, 8-chloro-N-((1,4-trans)-4-(((5-((oxetan-3-yloxy)methyl)pyrimidin-2-yl)amino)methyl)cyclohexyl)-1,7-naphthyridin-2-amine] | – | 0.024

Source: patent US12544374B2, “AZA-quinoline compounds and uses thereof” (Novartis AG, priority 2019, dated 2026)
